Source: the supplement of paper PMC11451515

Columns and labels:
Conditions in all cases: 48 h
[1] = test system: SEM cells; experiment: AUC of viability dose-response curve (% viability x log10 dose units); higher = less sensitive
In short: (§1)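 Leukemia cells adapted to each medium (500 or 1000 cells/well, 1536-well plates) were exposed to library compounds in DMSO for 48 h at 37°C at 11 threefold doses, 47 μM to 0.79 nM. Luminescence by CellTiter-Glo One was normalised per plate to DMSO and cell-free wells, then fitted with a four-parameter log-logistic curve on log10 dose. Curves above full viability were scaled and quality-control failures removed before area under the curve was integrated by trapezoidal rule.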

[2] = test system: P12-Ichikawa; experiment: as above
In short: as §1

[3] = test system: NOMO1; experiment: as above
In short: as §1

[4] = test system: SEM cells; experiment: cell viability relative to DMSO control; higher = less cytotoxic
In short: (§2)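 Viability was expressed as a per-plate percentage of DMSO wells, with cell-free wells as background. Leukemia cells (NOMO1 or SEM at 500 cells/well, P12-Ichikawa at 1000 cells/well) were adapted for at least four passages in each medium and seeded in 1536-well plates (5 μl). Library compounds in DMSO were pin-dosed over an 11-point threefold series from 47 μM to 0.79 nM, and CellTiter-Glo One luminescence was read after 48 h at 37°C.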

[5] = test system: P12-Ichikawa; experiment: as above
In short: as §2

[6] = test system: NOMO1; experiment: as above
In short: as §2

[7] = RPMI 5 mM glucose + 10% dialyzed FBS
[8] = HPLM + 10% dialyzed FBS, 0.000781 µM
[9] = HPLM + 10% dialyzed FBS, 0.00234 µM
[10] = HPLM + 10% dialyzed FBS, 0.00702 µM
[11] = HPLM + 10% dialyzed FBS, 0.0211 µM
[12] = HPLM + 10% dialyzed FBS, 0.0632 µM
[13] = HPLM + 10% dialyzed FBS, 0.19 µM
[14] = HPLM + 10% dialyzed FBS, 0.569 µM
[15] = HPLM + 10% dialyzed FBS, 1.71 µM
[16] = HPLM + 10% dialyzed FBS, 5.12 µM
[17] = HPLM + 10% dialyzed FBS, 15.4 µM
[18] = HPLM + 10% dialyzed FBS, 46.1 µM
[19] = RPMI 5 mM glucose + 10% dialyzed FBS, 0.000781 µM
[20] = RPMI 5 mM glucose + 10% dialyzed FBS, 0.00234 µM
[21] = RPMI 5 mM glucose + 10% dialyzed FBS, 0.00702 µM
[22] = RPMI 5 mM glucose + 10% dialyzed FBS, 0.0211 µM
[23] = RPMI 5 mM glucose + 10% dialyzed FBS, 0.0632 µM
[24] = RPMI 5 mM glucose + 10% dialyzed FBS, 0.19 µM
[25] = RPMI 5 mM glucose + 10% dialyzed FBS, 0.569 µM
[26] = RPMI 5 mM glucose + 10% dialyzed FBS, 1.71 µM
[27] = RPMI 5 mM glucose + 10% dialyzed FBS, 5.12 µM
[28] = RPMI 5 mM glucose + 10% dialyzed FBS, 15.4 µM
[29] = RPMI 5 mM glucose + 10% dialyzed FBS, 46.1 µM
[30] = RPMI 5 mM glucose + 10% FBS, 0.000781 µM
[31] = RPMI 5 mM glucose + 10% FBS, 0.00234 µM
[32] = RPMI 5 mM glucose + 10% FBS, 0.00702 µM
[33] = RPMI 5 mM glucose + 10% FBS, 0.0211 µM
[34] = RPMI 5 mM glucose + 10% FBS, 0.0632 µM
[35] = RPMI 5 mM glucose + 10% FBS, 0.19 µM
[36] = RPMI 5 mM glucose + 10% FBS, 0.569 µM
[37] = RPMI 5 mM glucose + 10% FBS, 1.71 µM
[38] = RPMI 5 mM glucose + 10% FBS, 5.12 µM
[39] = RPMI 5 mM glucose + 10% FBS, 15.4 µM
[40] = RPMI 5 mM glucose + 10% FBS, 46.1 µM

For `Cc1cc2c(C(C)C)c(O)c(O)c(C=O)c2c(O)c1-c1c(C)cc2c(C(C)C)c(O)c(O)c(C=O)c2c1O`, the “AUC of viability dose-response curve” value ([1]; HPLM + 10% dialyzed FBS) was 459, the “AUC of viability dose-response curve” value ([1]; RPMI 5 mM glucose + 10% FBS) was 447 and the “AUC of viability dose-response curve” value [1, 7] was 444. For the same compound, the “AUC of viability dose-response curve” value ([2]; HPLM + 10% dialyzed FBS) was 453, the “AUC of viability dose-response curve” value ([2]; RPMI 5 mM glucose + 10% FBS) was 451 and the “AUC of viability dose-response curve” value [2, 7] was 452. For the same compound, the “AUC of viability dose-response curve” value ([3]; HPLM + 10% dialyzed FBS) was 445, the “AUC of viability dose-response curve” value ([3]; RPMI 5 mM glucose + 10% FBS) was 449 and the “AUC of viability dose-response curve” value [3, 7] was 452. It also gave a cell viability [4, 8] of 107%, a cell viability [4, 9] of 114% and a cell viability [4, 10] of 105%. For the same compound, the cell viability [4, 11] was 113%, the cell viability [4, 12] was 112% and the cell viability [4, 13] was 101%. For the same compound, the cell viability [4, 14] was 116%, the cell viability [4, 15] was 101% and the cell viability [4, 16] was 99.2%. For the same compound, the cell viability [4, 17] was 110%, the cell viability [4, 18] was 27.6% and the cell viability [4, 19] was 106%. It also gave a cell viability [4, 20] of 123%, a cell viability [4, 21] of 120% and a cell viability [4, 22] of 109%. The cell viability [4, 23] was 112%, the cell viability [4, 24] was 113% and the cell viability [4, 25] was 117%. The cell viability [4, 26] was 103%, the cell viability [4, 27] was 106% and the cell viability [4, 28] was 90%. The cell viability [4, 29] was 6.54%, the cell viability [5, 8] was 113% and the cell viability [5, 9] was 111%. For the same compound, the cell viability [5, 10] was 111%, the cell viability [5, 11] was 113% and the cell viability [5, 12] was 108%. It also gave a cell viability [5, 13] of 99.6%, a cell viability [5, 14] of 108% and a cell viability [5, 15] of 104%. The cell viability [5, 16] was 102%, the cell viability [5, 17] was 98.1% and the cell viability [5, 18] was 17.1%. The cell viability [5, 30] was 117%, the cell viability [5, 31] was 125% and the cell viability [5, 32] was 127%. The cell viability [5, 33] was 121%, the cell viability [5, 34] was 119% and the cell viability [5, 35] was 106%. The cell viability [5, 36] was 117%, the cell viability [5, 37] was 101% and the cell viability [5, 38] was 112%. For the same compound, the cell viability [5, 39] was 106%, the cell viability [5, 40] was 10.6% and the cell viability [5, 19] was 116%. For the same compound, the cell viability [5, 20] was 124%, the cell viability [5, 21] was 118% and the cell viability [5, 22] was 116%. It also gave a cell viability [5, 23] of 111%, a cell viability [5, 24] of 109% and a cell viability [5, 25] of 110%. It also gave a cell viability [5, 26] of 104%, a cell viability [5, 27] of 110% and a cell viability [5, 28] of 100%. The cell viability [5, 29] was 22%, the cell viability [6, 8] was 122% and the cell viability [6, 9] was 123%. The cell viability [6, 10] was 135%, the cell viability [6, 11] was 137% and the cell viability [6, 12] was 115%. The cell viability [6, 13] was 107%, the cell viability [6, 14] was 116% and the cell viability [6, 15] was 105%. The cell viability [6, 16] was 105%, the cell viability [6, 17] was 100% and the cell viability [6, 18] was 50.8%. The cell viability [6, 30] was 100%, the cell viability [6, 31] was 116% and the cell viability [6, 32] was 104%. It also gave a cell viability [6, 33] of 109%, a cell viability [6, 34] of 107% and a cell viability [6, 35] of 106%. The cell viability [6, 36] was 115%, the cell viability [6, 37] was 97.1% and the cell viability [6, 38] was 98.5%. The cell viability [6, 39] was 92.8%, the cell viability [6, 40] was 12% and the cell viability [6, 19] was 115%. The cell viability [6, 20] was 115%, the cell viability [6, 21] was 114% and the cell viability [6, 22] was 121%. It also gave a cell viability [6, 23] of 114%, a cell viability [6, 24] of 102% and a cell viability [6, 25] of 103%. It also gave a cell viability [6, 26] of 106%, a cell viability [6, 27] of 110% and a cell viability [6, 28] of 94.6%. The cell viability [6, 29] was 27.5%.
